Reference: US11939361B2, “Compositions of peptide inhibitors of Interleukin-23 receptor” (Janssen Pharmaceutica NV, priority 2020, dated 2024)
Where two headings read alike, the source gives them in different places.

What was measured:
[1] = tested on: IL-23 induced expression of IL-17A, IL-17F, and IL-22; assay: Rat skin gene expression downstream of intradermal IL-23; format: in vivo, Sprague-Dawley rats
Description: (§1) Ear inflammation was induced in Sprague-Dawley rats by daily intradermal injection of recombinant rat IL-23 on study days 0-3. Treatment with the peptide of SEQ ID NO: 1 (dose response by oral gavage; 1, 3, 10, 30, 100, and 300 mg/kg, twice a day) was initiated prophylactically starting one day prior to and continued through day 3 after induction of inflammation. All rats were humanely euthanized on day 4. An anti-IL-23 monoclonal antibody (administered intraperitoneally on days −1 and day 3) was included in all studies as a positive control and comparator.
Test article was dissolved into phosphate buffer at the appropriate concentrations and aliquoted for each dose and stored at 4° C. Retentions of each dose formulation were obtained after the initial preparation and following the final dose on day 3 into Eppendorf tubes and stored at −80° C. for bioanalysis of test article by LCMS.
(§2) Recombinant rat IL-23 was diluted with PBS to a concentration of 75 μg/mL, divided into 2.0 mL aliquots, and stored at −80° C. Daily from day 0 through day 3, rats were anesthetized with isoflurane and IL-23 was intradermally injected (i.d.) into the right ear (1.5 μg in a volume of 20 μL). In the control group, 20 μL of PBS was injected.
(§3) Starting the morning prior to IL-23 injection through the evening of day 3, rats were dosed with either vehicle (phosphate buffer) or the peptide of SEQ ID NO: 1 compound twice daily (approximately 10 hours apart between doses during the day) by oral gavage (p.o.) in a volume of 5 mL/kg. In one experiment, the peptide of SEQ ID NO: 1 was also administered subcutaneously (s.c.) in a volume of 5 mL/kg.
(§4) Anti-IL-23p19 antibody or isotype antibody was administered via intraperitoneal injection (i.p.) in a volume of 5 mL/kg on days −1 and 3.
At the end of the study, four days after induction with IL-23 (approximately 16 hours after the evening dose on day 3), animals were euthanized by CO2 asphyxiation. The ear tissue was weighed, snap frozen, and stored at −80° C. for gene expression analysis of inflammatory genes (IL-22, IL-17A, IL-17F, TNF). […]

[2] = tested on: rat IL-23 induced skin inflammation model; assay: Rat IL-23 induced ear thickening; format: in vivo, Sprague-Dawley rats; design: key to IL-23 induced ear thickening, comparison to control (significance): ns: not significant; **: p < 0.01; ***: p < 0.001; ****: p < 0.0001; conditions: for IL-23 induced ear thickening, comparison to control (significance): control Vehicle
Description: as §1, §2, §3, §4
The purpose of the rat ear thickening experiment is to determine whether the orally dosed peptide of SEQ ID NO: 1 has sufficient systemic exposure to provide inhibition of IL-23R in skin tissue, thus modeling orally dosed therapeutic efficacy in psoriatic skin tissue. The animals from Example 19 were also used for Example 20. On day 0, prior to IL-23 injection, the ipsilateral ears averaged approximately 0.4 mm. In rats injected with saline, the ears did swell as a result of the repeated intradermal injections, by an average of 0.053 mm by day 4. By comparison, injection of IL-23 caused the ears of both vehicle-treated and isotype antibody-treated rats to progressively increase in thickness, reaching an average of approximately 0.240 to 0.242 mm by day 4, respectively. […] Reductions in ear thickness at doses of 2 mg/kg, s.c. and 20 mg/kg, p.o., q.d. were not statistically significant (FIG. 9 and Table 15).

[3] = Colon and colonic content concentrations in rat TNBS colitis model (LC-MS/MS); format: in vivo, Sprague Dawley rats; conditions: Sprague Dawley, po
Description: […] In all studies, the peptide of SEQ ID NO: 1 was dosed starting 2 days prior to TNBS induction through day 6, with euthanasia scheduled on day 7.
At the end of each study, colonic content and colon tissue samples were collected from each animal and analyzed for drug concentrations by LC-MS/MS.

CC(=O)NCCCC[C@@H]1NC(=O)[C@H](Cc2c[nH]c3c(C)cccc23)NC(=O)[C@H]([C@@H](C)O)NC(=O)[C@H](CC(N)=O)NC(=O)[C@@H](NC(C)=O)C(C)(C)SSC(C)(C)[C@@H](C(=O)N[C@@H](Cc2ccc(OCCN)cc2)C(=O)N[C@@H](Cc2ccc3ccccc3c2)C(=O)NC2(C(=O)N[C@@H](CCC(=O)O)C(=O)N[C@@H](CC(N)=O)C(=O)N[C@@H](Cc3cccnc3)C(=O)N(C)CC(N)=O)CCOCC2)NC1=O [SEQ ID NO: 1, Ac-[Pen]*—N-T-[W(7-Me)]-[Lys(Ac)]-[Pen]*-Phe[4-(2-aminoethoxy)]-[2-Nal]-[THP]-E-N-[3-Pal]-Sarc-NH2]
median IL-17A expression in skin ([1]; all tested doses (1-300 mg/kg b.i.d., oral)): reduced | reduction of median IL-17A expression in skin ([1]; doses of 10 mg/kg (b.i.d.) or higher): comparable degree as anti-IL-23 antibody | IL-23 induced expression of IL-17A, IL-17F, and IL-22 in skin ([1]; oral, 1-300 mg/kg b.i.d., days -1 to 3, dose dependent): attenuated | IL-23 induced ear thickening, comparison to control (significance) ([2]; 1 mg/kg, p.o., b.i.d., Day 1): ns | IL-23 induced ear thickening, comparison to control (significance) ([2]; 1 mg/kg, p.o., b.i.d., Day 2): ns | IL-23 induced ear thickening, comparison to control (significance) ([2]; 1 mg/kg, p.o., b.i.d., Day 3): **** (p < 0.0001) | IL-23 induced ear thickening, comparison to control (significance) ([2]; 1 mg/kg, p.o., b.i.d., Day 4): **** (p < 0.0001) | IL-23 induced ear thickening, comparison to control (significance) ([2]; 2 mg/kg, s.c., b.i.d., Day 1): ns | IL-23 induced ear thickening, comparison to control (significance) ([2]; 2 mg/kg, s.c., b.i.d., Day 2): ns | IL-23 induced ear thickening, comparison to control (significance) ([2]; 2 mg/kg, s.c., b.i.d., Day 3): ns | IL-23 induced ear thickening, comparison to control (significance) ([2]; 2 mg/kg, s.c., b.i.d., Day 4): ns | IL-23 induced ear thickening, comparison to control (significance) ([2]; 3 mg/kg, p.o., b.i.d., Day 1): ns | IL-23 induced ear thickening, comparison to control (significance) ([2]; 3 mg/kg, p.o., b.i.d., Day 2): ns | IL-23 induced ear thickening, comparison to control (significance) ([2]; 3 mg/kg, p.o., b.i.d., Day 3): *** (p < 0.001) | IL-23 induced ear thickening, comparison to control (significance) ([2]; 3 mg/kg, p.o., b.i.d., Day 4): *** (p < 0.001) | IL-23 induced ear thickening, comparison to control (significance) ([2]; 10 mg/kg, p.o., b.i.d., Day 1): ns | IL-23 induced ear thickening, comparison to control (significance) ([2]; 10 mg/kg, p.o., b.i.d., Day 2): ns | IL-23 induced ear thickening, comparison to control (significance) ([2]; 10 mg/kg, p.o., b.i.d., Day 3): *** (p < 0.001) | IL-23 induced ear thickening, comparison to control (significance) ([2]; 10 mg/kg, p.o., b.i.d., Day 4): **** (p < 0.0001) | IL-23 induced ear thickening, comparison to control (significance) ([2]; 20 mg/kg, p.o., q.d., Day 1): ns | IL-23 induced ear thickening, comparison to control (significance) ([2]; 20 mg/kg, p.o., q.d., Day 2): ns | IL-23 induced ear thickening, comparison to control (significance) ([2]; 20 mg/kg, p.o., q.d., Day 3): ns | IL-23 induced ear thickening, comparison to control (significance) ([2]; 20 mg/kg, p.o., q.d., Day 4): ns | IL-23 induced ear thickening, comparison to control (significance) ([2]; 30 mg/kg, p.o., b.i.d., Day 1): ns | IL-23 induced ear thickening, comparison to control (significance) ([2]; 30 mg/kg, p.o., b.i.d., Day 3): **** (p < 0.0001) | IL-23 induced ear thickening, comparison to control (significance) ([2]; 30 mg/kg, p.o., b.i.d., Day 4): **** (p < 0.0001) | IL-23 induced ear thickening, comparison to control (significance) ([2]; 100 mg/kg, p.o., b.i.d., Day 1): ns | IL-23 induced ear thickening, comparison to control (significance) ([2]; 100 mg/kg, p.o., b.i.d., Day 2): ns | IL-23 induced ear thickening, comparison to control (significance) ([2]; 100 mg/kg, p.o., b.i.d., Day 3): **** (p < 0.0001) | IL-23 induced ear thickening, comparison to control (significance) ([2]; 100 mg/kg, p.o., b.i.d., Day 4): **** (p < 0.0001) | day 4 ear swelling, average ([2]; 300 mg/kg, b.i.d., oral): 0.120 mm | IL-23 induced ear thickening, comparison to control (significance) ([2]; 300 mg/kg, p.o., b.i.d., Day 1): ns | IL-23 induced ear thickening, comparison to control (significance) ([2]; 300 mg/kg, p.o., b.i.d., Day 2): ns | IL-23 induced ear thickening, comparison to control (significance) ([2]; 300 mg/kg, p.o., b.i.d., Day 3): *** (p < 0.001) | IL-23 induced ear thickening, comparison to control (significance) ([2]; 300 mg/kg, p.o., b.i.d., Day 4): **** (p < 0.0001) | efficacy on ear thickening ([2]; doses of 10 mg/kg (p.o., b.i.d.) and above): equaled or exceeded that of anti-IL-23 antibody treatment | IL-23 induced ear thickening ([2]; orally administered): prevented | tissue level at time at 168 h ([3]; colon content, 0.033 mg/kg, Study 3, 0.033 mg/kg TID oral, total daily dose 0.1 mg/kg, read-out: Mean concentration in Colon content): 567 ng/g | tissue level at time at 168 h ([3]; colon content, 0.1 mg/kg, Study 2, 0.1 mg/kg TID oral, total daily dose 0.3 mg/kg, read-out: Mean concentration in Colon content): 1990 ng/g | tissue level at time at 168 h ([3]; colon content, 0.1 mg/kg, Study 3, 0.1 mg/kg TID oral, total daily dose 0.3 mg/kg, read-out: Mean concentration in Colon content): 3180 ng/g | tissue level at time at 168 h ([3]; colon content, 0.33 mg/kg, Study 2, 0.33 mg/kg TID oral, total daily dose 1 mg/kg, read-out: Mean concentration in Colon content): 7440 ng/g | tissue level at time at 168 h ([3]; colon content, 0.33 mg/kg, Study 3, 0.33 mg/kg TID oral, total daily dose 1 mg/kg, read-out: Mean concentration in Colon content): 6050 ng/g | tissue level at time at 168 h ([3]; colon content, 0.5 mg/kg, Study 2, 0.5 mg/kg BID oral, total daily dose 1 mg/kg, read-out: Mean concentration in Colon content): 11200 ng/g | tissue level at time at 168 h ([3]; colon content, 1 mg/kg, Study 2, 1 mg/kg QD oral, total daily dose 1 mg/kg, read-out: Mean concentration in Colon content): 11700 ng/g | tissue level at time at 168 h ([3]; colon content, 1 mg/kg, Study 2, 1 mg/kg TID oral, total daily dose 3 mg/kg, read-out: Mean concentration in Colon content): 22200 ng/g | tissue level at time at 168 h ([3]; colon content, 1 mg/kg, Study 3, 1 mg/kg TID oral, total daily dose 3 mg/kg, read-out: Mean concentration in Colon content): 20800 ng/g | tissue level at time at 168 h ([3]; colon content, 3.3 mg/kg, Study 2, 3.3 mg/kg TID oral, total daily dose 10 mg/kg, read-out: Mean concentration in Colon content): 73500 ng/g | tissue level at time at 168 h ([3]; colon, 0.1 mg/kg, Study 3, 0.1 mg/kg TID oral, total daily dose 0.3 mg/kg, read-out: Mean concentration in Colon): 44.4 ng/g | tissue level at time at 168 h ([3]; colon, 0.33 mg/kg, Study 3, 0.33 mg/kg TID oral, total daily dose 1 mg/kg, read-out: Mean concentration in Colon): 158 ng/g | tissue level at time at 168 h ([3]; colon, 1 mg/kg, Study 3, 1 mg/kg TID oral, total daily dose 3 mg/kg, read-out: Mean concentration in Colon): 509 ng/g
